In patent US7704991B2, “Substituted diazabicyclo derivatives and their use as monoamine neurotransmitter re-uptake inhibitors” (Neurosearch A/S, priority 2005, dated 2010):
Counter-ions that a name gives are not always drawn. Like-named read-outs stand apart in the source and are kept apart here.

Columns and labels:
[1] = molecular target: T1, dopamine (DA) reuptake in synaptosomes (Rattus norvegicus, UniProt P23977); assay: In vitro inhibition of dopamine (DA) reuptake in synaptosomes; assay type: biochemical
T1 construct: in synaptosomes as described in WO 97/16451; from tissue
T1 sequence (P23977 whole entry): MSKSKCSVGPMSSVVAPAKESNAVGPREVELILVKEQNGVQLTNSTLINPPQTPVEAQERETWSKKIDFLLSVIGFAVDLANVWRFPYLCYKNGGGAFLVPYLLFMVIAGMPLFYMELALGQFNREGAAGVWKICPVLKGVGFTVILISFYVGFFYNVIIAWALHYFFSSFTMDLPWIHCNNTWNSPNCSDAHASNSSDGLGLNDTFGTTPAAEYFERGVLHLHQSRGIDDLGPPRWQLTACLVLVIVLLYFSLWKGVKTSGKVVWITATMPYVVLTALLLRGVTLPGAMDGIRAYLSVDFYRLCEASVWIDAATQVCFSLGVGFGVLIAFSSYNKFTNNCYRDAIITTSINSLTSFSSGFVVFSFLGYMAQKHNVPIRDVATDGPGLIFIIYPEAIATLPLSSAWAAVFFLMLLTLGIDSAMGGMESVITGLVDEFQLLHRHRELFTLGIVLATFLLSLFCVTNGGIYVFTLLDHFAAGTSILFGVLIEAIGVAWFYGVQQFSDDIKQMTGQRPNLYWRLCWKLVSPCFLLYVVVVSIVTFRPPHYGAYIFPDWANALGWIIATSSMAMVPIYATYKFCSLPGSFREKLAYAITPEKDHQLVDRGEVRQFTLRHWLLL

[2] = molecular target: T2, noradrenaline (NA) reuptake in synaptosomes (Rattus norvegicus, UniProt Q63380); assay: In vitro inhibition of noradrenaline (NA) reuptake in synaptosomes; assay type: biochemical
T2 construct: in synaptosomes as described in WO 97/16451; from tissue
T2 sequence (Q63380 1-617): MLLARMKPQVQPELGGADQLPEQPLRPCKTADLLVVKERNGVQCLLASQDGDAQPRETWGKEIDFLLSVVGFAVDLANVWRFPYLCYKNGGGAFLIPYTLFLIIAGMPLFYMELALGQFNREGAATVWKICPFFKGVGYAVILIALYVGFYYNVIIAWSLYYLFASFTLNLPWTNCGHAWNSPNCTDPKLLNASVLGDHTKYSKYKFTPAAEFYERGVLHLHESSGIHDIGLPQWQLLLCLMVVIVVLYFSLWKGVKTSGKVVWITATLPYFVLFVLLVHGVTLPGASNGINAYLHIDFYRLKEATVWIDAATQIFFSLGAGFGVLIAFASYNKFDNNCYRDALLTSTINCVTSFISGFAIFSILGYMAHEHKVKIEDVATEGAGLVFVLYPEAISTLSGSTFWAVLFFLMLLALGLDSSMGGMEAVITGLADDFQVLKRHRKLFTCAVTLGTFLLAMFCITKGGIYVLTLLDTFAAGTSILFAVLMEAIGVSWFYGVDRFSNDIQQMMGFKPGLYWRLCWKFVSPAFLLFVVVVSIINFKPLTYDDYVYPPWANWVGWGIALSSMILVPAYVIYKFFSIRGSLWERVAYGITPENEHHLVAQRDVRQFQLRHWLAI

[3] = molecular target: T3, serotonine (5-HT) reuptake in synaptosomes (Rattus norvegicus, UniProt P31652); assay: In vitro inhibition of serotonine (5-HT) reuptake in synaptosomes; assay type: biochemical
T3 construct: in synaptosomes as described in WO 97/16451; from tissue
T3 sequence (P31652 whole entry): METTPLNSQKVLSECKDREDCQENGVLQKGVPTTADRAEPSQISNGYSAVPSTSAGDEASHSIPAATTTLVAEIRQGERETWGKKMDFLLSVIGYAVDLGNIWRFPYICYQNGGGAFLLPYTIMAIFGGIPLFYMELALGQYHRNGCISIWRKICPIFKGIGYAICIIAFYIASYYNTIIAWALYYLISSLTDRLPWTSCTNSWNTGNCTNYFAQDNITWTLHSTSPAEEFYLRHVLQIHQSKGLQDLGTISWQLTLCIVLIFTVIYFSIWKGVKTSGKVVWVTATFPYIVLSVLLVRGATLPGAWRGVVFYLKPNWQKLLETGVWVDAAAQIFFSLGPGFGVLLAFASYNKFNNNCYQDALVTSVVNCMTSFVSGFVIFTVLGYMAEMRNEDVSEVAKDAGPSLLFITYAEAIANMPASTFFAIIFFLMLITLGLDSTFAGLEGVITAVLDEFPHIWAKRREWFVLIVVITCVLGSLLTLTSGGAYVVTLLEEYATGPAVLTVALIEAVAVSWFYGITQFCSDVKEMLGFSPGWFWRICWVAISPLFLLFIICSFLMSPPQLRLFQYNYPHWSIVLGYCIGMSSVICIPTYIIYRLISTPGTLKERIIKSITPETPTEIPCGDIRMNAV
Procedure: A number of compounds were tested for their ability to inhibit the reuptake of the monoamine neurotransmitters dopamine (DA) noradrenaline (NA) and serotonine (5-HT) in synaptosomes as described in WO 97/16451.
The test values are given as IC50 (the concentration (μM) of the test substance which inhibits the specific binding of ^3H-DA, ^3H-NA, or ^3H-5-HT by 50%).

[4] = synaptosomes, 3H-DA, read-out: DA-uptake IC50
[5] = synaptosomes, 3H-NA, read-out: NA-uptake IC50

Row | SMILES | melting point [°C] | IC50 [1, 4] [nM] | IC50 [2, 5] [nM] | IC50 [3] [nM] | also measured
1 | COc1ccc2cc(N3CC4CCC(C3)N4C)ccc2c1 (as salt: fumaric acid salt) [1st compound of method B, 3-(6-Methoxy-naphthalen-2-yl)-8-methyl-3,8-diaza-bicyclo[3.2.1]octane] | 204 to 206 | – | – | – | –
2 | CN1C2CCC1CN(c1ccc3ccccc3n1)C2 (as salt: fumaric acid salt) [2nd compound of method A, 2-(8-Methyl-3,8-diaza-bicyclo[3.2.1]oct-3-yl)-quinoline] | 210 to 212 | – | – | – | –
3 | CN1C2CCC1CN(c1ccc3cc([N+](=O)[O-])ccc3n1)C2 [1st compound of method A, 2-(8-Methyl-3,8-diaza-bicyclo[3.2.1]oct-3-yl)-6-nitro-quinoline] | 152.1 to 154.5 | 16000 | 4600 | 3.1 | –
4 | COc1ccc2cc(N3CC4CCC(C3)N4C)ccc2c1 [1st compound of method B, 3-(6-Methoxy-naphthalen-2-yl)-8-methyl-3,8-diaza-bicyclo[3.2.1]octane] | – | – | – | – | IC50 [1]: 56 nM; IC50 [2]: 20 nM; IC50 ([3]; synaptosomes, 3H-5-HT, read-out: 5-HT-uptake IC50): 20 nM
5 | CN1C2CCC1CN(c1ccc3ccccc3n1)C2 [2nd compound of method A, 2-(8-Methyl-3,8-diaza-bicyclo[3.2.1]oct-3-yl)-quinoline] | – | 1600 | 450 | 16 | –
